26 compounds from patent US6977262B2, “Dihydropyrazolopyridine compounds and pharmaceutical use thereof” (Mitsubishi Pharma Corporation, priority 2001, dated 2005) can be followed below.

Molecules are shown by their SMILES. Structures can show the parent of a compound that is named as a salt.

One may read the melting point as the temperature, or range, at which the solid turns liquid. In turn, `N#CC1=C(C2CCC2)Nc2n[nH]cc2C1c1cccc2nonc12` (centres unmarked) [Example 322, 4-(2,1,3-Benzoxadiazol-4-yl)-5-cyano-6-cyclobutyl-4,7-dihydro-2H-pyrazolo[3,4-b]pyridine] returned a melting point of 194 °C.

In turn, `CCCC1=C(C#N)C(c2ccccc2Cl)c2c(n[nH]c2CC)N1` (centres unmarked) [Example 309, 4-(2-Chlorophenyl)-5-cyano-4,7-dihydro-3-ethyl-6-propyl-2H-pyrazolo[3,4-b]pyridine] displayed a melting point of 269 °C. For `CCCC1=C(C#N)C(c2cccc3nonc23)c2c[nH]nc2N1` (centres unmarked) [Example 137, 4-(2,1,3-Benzoxadiazol-4-yl)-5-cyano-4,7-dihydro-6-propyl-2H-pyrazolo[3,4-b]pyridine], the melting point was determined as 194 °C. In turn, `CCCC1=C(C(=O)OCC)C(c2sccc2C)c2c[nH]nc2N1` (centres unmarked) [Example 63, Ethyl 4,7-dihydro-4-(3-methylthiophen-2-yl)-6-propyl-2H-pyrazolo[3,4-b]pyridine-5-carboxylate] displayed a melting point of 125 °C. `CCCC1=C(C(=O)OCC)C(c2ccsc2)c2c[nH]nc2N1.O=C(O)/C=C\C(=O)O` (centres unmarked) [Example 65, Ethyl 4,7-dihydro-6-propyl-4-(thiophen-3-yl)-2H-pyrazolo[3,4-b]pyridine-5-carboxylate maleate] yielded a melting point of 141 to 143 °C. Regarding `Cc1cccc(C2C(C#N)=C(C3CC3)Nc3n[nH]cc32)c1[N+](=O)[O-]` (centres unmarked) [Example 340, 5-Cyano-6-cyclopropyl-4,7-dihydro-4-(3-methyl-2-nitrophenyl)-2H-pyrazolo[3,4-b]pyridine], the melting point stood at 265 °C. Take `CCCC1=C(C#N)C(c2ccccc2C)c2c[nH]nc2N1` (centres unmarked) [Example 131, 5-Cyano-4,7-dihydro-4-(2-methylphenyl)-6-propyl-2H-pyrazolo[3,4-b]pyridine]: the melting point amounted to 230 °C.

Regarding `CCOC(=O)C1=C(C)Nc2n[nH]cc2C1c1ccccc1OC` (centres unmarked) [Example 2, Ethyl 4,7-dihydro-4-(2-methoxyphenyl)-6-methyl-2H-pyrazolo[3,4-b]pyridine-5-carboxylate], the melting point lay in the range of 196 to 200 °C. As for `N#CC1=C(C2CCNC2)Nc2n[nH]cc2C1c1ccccc1Cl` (centres unmarked) [Example 1086, 4-(2-Chlorophenyl)-5-cyano-4,7-dihydro-6-(pyrrolidin-3-yl)-2H-pyrazolo[3,4-b]pyridine], the melting point was 210 to 215 °C (dec.). The compound `CN1CCCC(C2=C(C#N)C(c3cccc(C#N)c3Br)c3c[nH]nc3N2)C1` (centres unmarked) (as salt: trifluoroacetate) [Example 1041, 4-(2-Bromo-3-cyanophenyl)-5-cyano-4,7-dihydro-6-(1-methylpiperidin-3-yl)-2H-pyrazolo[3,4-b]pyridine] showed a melting point of 174 °C. To `CCCC1=C(C(=O)OCC)C(c2cccc(C#N)c2Cl)c2c[nH]nc2N1` (centres unmarked) [Example 180, Ethyl 4-(2-chloro-3-cyanophenyl)-4,7-dihydro-6-propyl-2H-pyrazolo[3,4-b]pyridine-5-carboxylate] belongs 213 to 215 °C; to `CC(C)(C)OC(=O)N1CCC(C2=C(C#N)C(c3cccc(C#N)c3Br)c3c[nH]nc3N2)CC1` (centres unmarked) [Example 1036, 4-(2-Bromo-3-cyanophenyl)-6-(1-t-butoxycarbonylpiperidin-4-yl)-5-cyano-4,7-dihydro-2H-pyrazolo[3,4-b]pyridine], over 270 °C; to `CCCC1=C(C(=O)OCC)C(c2ccccc2F)c2c[nH]nc2N1` (centres unmarked) [Example 26, Ethyl 4-(2-fluorophenyl)-4,7-dihydro-6-propyl-2H-pyrazolo[3,4-b]pyridine-5-carboxylate], 192 to 194 °C. To `CC(=O)C1=C(C#N)C(c2cccc(C#N)c2Br)c2c[nH]nc2N1` (centres unmarked) [Example 1081, 6-Acetyl-4-(2-bromo-3-cyanophenyl)-5-cyano-4,7-dihydro-2H-pyrazolo[3,4-b]pyridine] belongs over 230 °C.

Turning to `CC(C)N1CCC(C2=C(C#N)C(c3cccc4nonc34)c3c[nH]nc3N2)CC1` (centres unmarked) [Example 1035, 4-(2,1,3-Benzoxadiazol-4-yl)-5-cyano-4,7-dihydro-6-(1-iso-propylpiperidin-4-yl)-2H-pyrazolo[3,4-b]pyridine], the melting point stood at 260 °C. To `CCOC(=O)C1=C(C)Nc2n[nH]cc2C1c1ccccc1C(F)(F)F` (centres unmarked) [Example 3, Ethyl 4,7-dihydro-6-methyl-4-(2-trifluoromethylphenyl)-2H-pyrazolo[3,4-b]pyridine-5-carboxylate] belongs 259 to 262 °C.

`COc1ccccc1C1C(C#N)=C(c2cccs2)Nc2n[nH]cc21` (centres unmarked) [Example 242, 5-Cyano-4,7-dihydro-4-(2-methoxyphenyl)-6-(thiophen-2-yl)-2H-pyrazolo[3,4-b]pyridine] returned a melting point of 215 °C. Turning to `N#CC1=C(c2cccs2)Nc2n[nH]cc2C1c1cccc(C#N)c1Br` (centres unmarked) [Example 278, 4-(2-Bromo-3-cyanophenyl)-5-cyano-4,7-dihydro-6-(thiophen-2-yl)-2H-pyrazolo[3,4-b]pyridine], the melting point was over 280 °C.

In turn, `CCCC1=C(C(=O)OCC)C(c2c(Cl)cccc2Cl)c2c[nH]nc2N1` (centres unmarked) [Example 55, Ethyl 4-(2,6-dichlorophenyl)-4,7-dihydro-6-propyl-2H-pyrazolo[3,4-b]pyridine-5-carboxylate] displayed a melting point of 202 °C. To `N#CC1=C(c2c[nH]c3ccccc23)Nc2n[nH]cc2C1c1cccc2nonc12` (centres unmarked) [Example 335, 4-(2,1,3-Benzoxadiazol-4-yl)-5-cyano-4,7-dihydro-6-(indol-3-yl)-2H-pyrazolo[3,4-b]pyridine] belongs 238 °C. `N#CC1=C(CN2C(=O)c3ccccc3C2=O)Nc2n[nH]cc2C1c1ccccc1Cl` (centres unmarked) [Example 1079, 4-(2-Chlorophenyl)-5-cyano-4,7-dihydro-6-phthalimidomethyl-2H-pyrazolo[3,4-b]pyridine] had a melting point of over 250 °C. In turn, `CCCC1=C(C(=O)OCC)C(c2cccc3ccccc23)c2c[nH]nc2N1` (centres unmarked) [Example 66, Ethyl 4,7-dihydro-4-(naphthalen-1-yl)-6-propyl-2H-pyrazolo[3,4-b]pyridine-5-carboxylate] gave a melting point of 182 °C. For the compound `CCOC(=O)/C=C/C1=C(C#N)C(c2ccccc2Cl)c2c[nH]nc2N1` (stereo not drawn) [Example 253, 4-(2-Chlorophenyl)-5-cyano-4,7-dihydro-6-(trans-2-ethoxycarbonylethenyl)-2H-pyrazolo[3,4-b]pyridine], the melting point is 240 to 243 °C (dec.).

For `CCCC1=C(C#N)C(c2ccccc2Cl)c2c(OC(=O)OC(C)(C)C)n[nH]c2N1` (centres unmarked) [Example 328, 3-t-Butoxycarbonyloxy-4-(2-chlorophenyl)-5-cyano-4,7-dihydro-6-propyl-1 H-pyrazolo[3,4-b]pyridine], the melting point worked out at 182 °C. The compound `CCOC(=O)C1=C(C(F)(F)F)Nc2n[nH]cc2C1c1ccccc1Cl.O=C(O)/C=C\C(=O)O` (centres unmarked) [Example 14, Ethyl 4-(2-chlorophenyl)-4,7-dihydro-6-trifluoromethyl-2H-pyrazolo[3,4-b]pyridine-5-carboxylate maleate] gave a melting point of 171 to 172 °C. As to `CCCC1=C(C#N)C(c2cccc3ccccc23)c2c[nH]nc2N1` (centres unmarked) [Example 135, 5-Cyano-4,7-dihydro-4-(naphthalen-1-yl)-6-propyl-2H-pyrazolo[3,4-b]pyridine], the melting point is 263 °C.
